Tests used:
Mouse STC-1 cells = test: STC-1 GLP-1 assay; type: cell-based; conditions: GLP-1 secretion, 2 h, coded A-C, read-out: Mouse STC-1 HTRF GLP-1 Activity (EC50)
Procedure: We evaluated Compounds of the present invention for their ability to induce GLP-1 production in mouse intestinal neuroendocrine tumor cells. Mouse STC-1 cells were cultured and maintained in high glucose DMEM (Sigma #5796) supplemented with 15% horse serum, 5% Fetal Bovine Serum (FBS), 1% penicillin/streptomycin, and 2 mM L-alanine L-glutamine (GlutaMax). Two days prior to analysis of GLP-1 secretion cells were harvested using Accutase (Sigma), spun down then resuspended in high glucose DMEM media containing 2 mM L-alanine L-glutamine (GlutaMax), 10% charcoal-dextran stripped FBS, and 50 μg/mL Gentamicin, at a density of 100,000 cells/mL. 100 μL of cell suspension was added to each well of a 96-well Poly-D-Lysine coated culture plate (Sigma; cat #2382493) and was incubated at 37° C. with 5% CO2.
Compounds were initially diluted in 100% DMSO (12-point serial dilution by half logs) in a 96-well plate and then were further diluted 1:500 in Hanks' Balanced Salt Solution (HBSS) containing protease inhibitor cocktail, DPP-IV inhibitor, and 0.1% fatty acid free bovine serum albumin. On the day of the experiment cells were washed once with HBSS. After wash, 100 μL of test compound was added to each well. The plate was incubated at 37° C. with 5% CO2 for 2 h. Supernatants were collected and GLP-1 secretion was measured using the Cisbio™ Active GLP-1 HTRF Assay Kit (Cisbio). Briefly, Anti-GLP-1-d2 conjugate and Anti-GLP-1 Terbium Cryptate conjugate stock solutions were prepared as per kit instructions. The two solutions were pre-mixed and 10 μL were transferred to a 384-well low volume plate (Greiner; cat #784075). 10 μL of collected supernatants were added to wells already containing the conjugate solution. The plate was covered and incubated at room temperature overnight. The plate was read on an Envision™ plate reader (Perkin Elmer).
In Table 34, EC50 values obtained from the STC-1 GLP-1 production assay for compounds of the present invention are summarized.

[1] = Pharmacokinetic profile in mice; type: in vivo; conditions: mouse; fasted male Hilltop mice, 10 mg/kg oral gavage, plasma, mean of three mice
Procedure: Pharmacokinetic Profile in Mice
In this series of studies, the pharmacokinetic profile characteristics of compounds of the present invention were evaluated. The plasma concentration levels of the compounds were monitored in the blood stream (i.e., plasma) after oral gavage using Cmax, and area under the curve (AUC).
8 week old male Hilltop mice were fasted overnight. Animals were randomized into groups (n=9) by body weight. Mice were dosed with 10 mg/kg compound (in 20% PEG400/80% 0.5% carboxymethylcellulose (medium viscosity)+0.25% Tween-80) at a volume of 10 mL/kg through oral gavage. Blood was collected via orbital bleeding at 0, 0.25, 0.5, 1, 2, and 4 h post-dose, with no one mouse having more than 3 blood draws. Blood was collected in EDTA coated tubes. Samples were stored at −20° C. until analysis.
Quantitation of compound levels in plasma was accomplished by LC-MS/MS analysis. Standard curve and quality control samples were prepared in male CD-1 mouse plasma containing EDTA K^2+ as an anticoagulant at final concentrations ranging from 500 to 0.1 ng/mL. The plasma samples, calibration curve standards, and quality control samples were prepared in an identical method in a 96-well deep plate (1 mL) with a quenching solution (1:1 mixed acetonitrile:methanol containing the internal standard Reserpine @ 400 ng/mL). Low volume samples were supplemented with CD-1 mouse plasma. The plate was mixed on multi-tube votex for 1 min and centrifuged at 4000 rpm for 30 min at 4° C. (Sorvall® Super T21) before LC-MS/MS analysis. LC conditions were developed and optimized based on each compound as needed. The outlet of the column was coupled to AB Sciex 4000 QTrap Mass Spectrometer (AB Sciex, Brugg Switzerland). Detection was carried out using multiple reaction monitoring mode with positive-ion detection focusing. The pharmacokinetic parameters were derived from the plasma-time data and calculated using the standard non-compartmental method with WinNonlin (Pharsight, Mountain View, Calif.) or PK Solver (Comp. Meth. Prog. Biomed. (2010), 99, 306-314).
Values reported are the mean plasma concentration of three mice.

Structure (SMILES) | EC50 (Mouse STC-1 cells) | Cmax [1]
Cc1cnccc1-c1cccc([C@H](C)N(CCCCC(=O)NCCS(=O)(=O)NCCC(=O)O)S(=O)(=O)c2ccccc2C(F)(F)F)c1 [Compound 20BM] | 1000 to 30000 nM | 0.6 ng/mL
Cc1cnccc1-c1cccc(C(C)(C)N(CCCC(=O)NCC(=O)O)S(=O)(=O)c2cccc(Cl)c2C)c1 [Compound 21AB, 2-(4-(3-chloro-2-methyl-N-(2-(3-(3-methylpyridin-4-yl)phenyl)propan-2-yl)phenylsulfonamido)butanamido)acetic acid] |  | 19.4 ng/mL
Cc1cnccc1-c1cccc([C@H](C)N(CCCCC(=O)NCCS(=O)(=O)O)S(=O)(=O)c2cccc(Cl)c2C)c1 [Compound 20AH, (S)-2-(5-(3-chloro-2-methyl-N-(1-(3-(3-methylpyridin-4-yl)phenyl)ethyl)phenylsulfonamido)pentanamido)ethanesulfonic acid] | 1000 to 30000 nM | 0.9 ng/mL
Cc1cnccc1-c1cccc([C@H](C)N(CCCCNC(=O)NCCS(=O)(=O)NCC(=O)O)S(=O)(=O)c2ccccc2C(F)(F)F)c1 [Compound 28AA, (S)-2-(3-(4-(N-(1-(3-(3-methylpyridin-4-yl)phenyl)ethyl)-2-(trifluoromethyl)phenylsulfonamido)butyl)ureido)ethanesulfonamido acetic acid] | 100 to 999 nM | 0.7 ng/mL
CCc1cnccc1-c1cccc([C@H](C)N(CCCC(=O)NC[C@@H](O)[C@H](O)[C@@H](O)[C@@H](O)CO)S(=O)(=O)c2cccc(Cl)c2C)c1 [Compound 20AN, 4-(3-chloro-N-((S)-1-(3-(3-ethylpyridin-4-yl)phenyl)ethyl)-2-methylphenylsulfonamido)-N-((2R,3S,4S,5S)-2,3,4,5,6-pentahydroxyhexyl)butanamide] | 100 to 999 nM | 1.7 ng/mL
Cc1cnccc1-c1cccc([C@H](C)N(CCCCNC(=O)[C@@H](N)CS(=O)(=O)O)S(=O)(=O)c2ccccc2C(F)(F)F)c1 [Compound 31AC, (R)-2-amino-3-((4-(N-((S)-1-(3-(3-methylpyridin-4-yl)phenyl)ethyl)-2-(trifluoromethyl)phenylsulfonamido)butyl)amino)-3-oxopropane-1-sulfonic acid] | 100 to 999 nM | 1.8 ng/mL
CCc1cnccc1-c1cccc([C@H](C)N(CCCC(=O)NCCNS(N)(=O)=O)S(=O)(=O)c2cccc(Cl)c2C)c1 [Compound 37AA, (S)-4-(3-chloro-N-(1-(3-(3-ethylpyridin-4-yl)phenyl)ethyl)-2-methylphenylsulfonamido)-N-(2-(sulfamoylamino)ethyl)butanamide] | 100 to 999 nM | 39.4 ng/mL
CCc1cnccc1-c1cccc([C@H](C)N(CCCC(=O)NCCS(=O)(=O)NCC(=O)O)S(=O)(=O)c2cccc(Cl)c2C)c1 [Compound 21AT, (S) 2-(3-(4-(3-chloro-2-methyl-N-(1-(3-(3-ethylpyridin-4-yl)phenyl)ethyl)phenylsulfonamido)butanamido)ethylsulfonamido)acetic acid] | 100 to 999 nM | 1.6 ng/mL
Cc1cnccc1-c1cccc(C(C)(C)N(CCCC(=O)NCCCS(=O)(=O)O)S(=O)(=O)c2cccc(Cl)c2C)c1 [Compound 20AD, 3-(4-(3-chloro-2-methyl-N-(2-(3-(3-methylpyridin-4-yl)phenyl)propan-2-yl)phenylsulfonamido)butanamido)propane-1-sulfonic acid] |  | 2.5 ng/mL
Cc1cnccc1-c1cccc(C(C)(C)N(CCCC(=O)NCCS(=O)(=O)NCC(=O)O)S(=O)(=O)c2cccc(Cl)c2C)c1 [Compound 20AW, (4-(3-chloro-2-methyl-N-(2-(3-(3-methylpyridin-4-yl)phenyl)propan-2-yl)phenylsulfonamido)-N-butanamidoethylsulfonamido)acetic acid] |  | 2.8 ng/mL

The remaining lines, values ahead:

EC50 (Mouse STC-1 cells) | Cmax [1] | Structure (SMILES)
100 to 999 nM | 1.5 ng/mL | Cc1cnccc1-c1cccc(C(C)(C)N(CCCNC(=O)NCCS(=O)(=O)O)S(=O)(=O)c2cccc(Cl)c2C)c1 [Compound 29AA, 2-(3-(3-((3-Chloro-2-methyl-N-(2-(3-(3-methylpyridin-4-yl)phenyl)propan-2-yl)phenyl)sulfonamide)propyl)ureido)ethane-1-sulfonic acid]
100 to 999 nM | 2.1 ng/mL | CCc1cnccc1-c1cccc(C2CN(C(=O)CS(=O)(=O)O)CCN2S(=O)(=O)c2cccc(Cl)c2C)c1 (stereo not drawn) [Compound 49, 2-(4-((3-Chloro-2-methylphenyl)sulfonyl)-3-(3-(3-ethylpyridin-4-yl)phenyl)piperazin-1-yl)-2-oxoethanesulfonic acid]
100 to 999 nM | 3.6 ng/mL | Cc1cnccc1-c1cccc([C@H](C)N(CCCC(=O)NCCNS(=O)(=O)NCC(=O)O)S(=O)(=O)c2cccc(Cl)c2C)c1 [Compound 38]
100 to 999 nM | 1.4 ng/mL | Cc1cnccc1-c1cccc([C@H](C)N(CCCC(=O)NCCNS(=O)(=O)CC(=O)O)S(=O)(=O)c2cccc(Cl)c2C)c1 [Compound 26AA]
100 to 999 nM | 7.8 ng/mL | CCc1cnccc1-c1cccc(C(C)(C)N(CCCC(=O)NCCS(=O)(=O)O)S(=O)(=O)c2cccc(Cl)c2C)c1 [Compound 20AC, 2-(4-(3-chloro-N-(2-(3-(3-ethylpyridin-4-yl)phenyl)propan-2-yl)-2-methylphenylsulfonamido)butanamido)ethanesulfonic acid]
100 to 999 nM | 0.9 ng/mL | CCc1cnccc1-c1cccc([C@H](C)N(CCCC(=O)NCCCS(=O)(=O)O)S(=O)(=O)c2cccc(Cl)c2C)c1 [Compound 20AM, (S)-3-(4-(3-chloro-N-(1-(3-(3-ethylpyridin-4-yl)phenyl)ethyl)-2-methylphenylsulfonamido)butanamido)propane-1-sulfonic acid]
100 to 999 nM | 4.6 ng/mL | CCc1cnccc1-c1cccc([C@H](C)N(CCCCNC(=O)NCS(=O)(=O)O)S(=O)(=O)c2ccccc2C(F)(F)F)c1 [Compound 28AH, (S)-(3-(4-(N-(1-(3-(3-ethylpyridin-4-yl)phenyl)ethyl)-2-(trifluoromethyl)phenylsulfonamido)butyl)ureido)methanesulfonic acid]
100 to 999 nM | 2.5 ng/mL | Cc1cnccc1-c1cccc(C(C)(C)N(CCCNC(=O)NCS(=O)(=O)O)S(=O)(=O)c2cccc(Cl)c2C)c1 [Compound 29, (3-(3-((3-Chloro-2-methyl-N-(2-(3-(3-methylpyridin-4-yl)phenyl)propan-2-yl)phenyl)sulfonamide)propyl)ureido) methanesulfonic acid]
100 to 999 nM | 1.5 ng/mL | Cc1cnccc1-c1cccc(C(C)(C)N(CCCC(=O)NCS(=O)(=O)O)S(=O)(=O)c2ccccc2C(F)(F)F)c1 [Compound 20AB]
100 to 999 nM | 436 ng/mL | CCc1cnccc1-c1cccc(C2CN(C(=O)CCC(=O)O)CCN2S(=O)(=O)c2cccc(Cl)c2C)c1 (racemic) [Compound 46, (+/−) 4-(4-((3-Chloro-2-methylphenyl)sulfonyl)-3-(3-(3-ethylpyridin-4-yl)phenyl)piperazin-1-yl)-4-oxobutanoic acid]
100 to 999 nM | 4.4 ng/mL | Cc1cnccc1-c1cccc([C@H](C)N(CCCCNC(=O)CS(=O)(=O)O)S(=O)(=O)c2ccccc2C(F)(F)F)c1 [Compound 31AA, (S)-2-((4-(N-(1-(3-(3-methylpyridin-4-yl)phenyl)ethyl)-2-(trifluoromethyl)phenylsulfonamido)butyl)amino)-2-oxoethanesulfonic acid]

— patent US11236055B2 (Venenum Biodesign, LLC, priority 2016, dated 2022)
